Test results published in PubChem BioAssay AID248 (DTP/NCI, 2004).
Several values for one entry are separate records, joined by “and”; a condition that tells them apart may be missing. Identical values can stand only once. Inconclusive results and toxic doses are left out.

System: L1210 leukemia ip in BDF1 mice, survival T/C
Experiment: NCI In Vivo Anticancer Drug Screen. Data for tumor model L1210 Leukemia (intraperitoneal) in B6D2F1 (BDF1) mice
Settings: higher = longer survival
In short: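 Read-out is survival time, reported as the treated-group measurement over the vehicle-control measurement.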

SMILES: CN(N=O)C(=O)NC(C=O)C(O)C(O)C(O)CO (centres undefined)
- T/C (endpoint: mean survival time, dose: 3.5 mg/kg/injection, schedule: Q#A X Z (ip), vehicle: saline): 108 % of control
- T/C (endpoint: mean survival time, dose: 4.0 mg/kg/injection, schedule: Q#A X Z (ip), vehicle: saline): 105 % of control
- T/C (endpoint: mean survival time, dose: 5.5 mg/kg/injection, schedule: Q#A X Z (ip), vehicle: saline): 116 % of control
- T/C (endpoint: mean survival time, dose: 6.0 mg/kg/injection, schedule: Q01DX Z (ip), vehicle: saline): 105 % of control
- T/C (endpoint: mean survival time, dose: 6.0 mg/kg/injection, schedule: Q#A X Z (ip), vehicle: saline): 103 % of control
- T/C (endpoint: mean survival time, dose: 8.0 mg/kg/injection, schedule: Q01DX Z (ip), vehicle: saline): 97 % of control
- T/C (endpoint: mean survival time, dose: 8.5 mg/kg/injection, schedule: Q#A X Z (ip), vehicle: saline): 118 % of control
- T/C (endpoint: mean survival time, dose: 9.0 mg/kg/injection, schedule: Q#A X Z (ip), vehicle: saline): 106 % of control
- T/C (endpoint: mean survival time, dose: 12.0 mg/kg/injection, schedule: Q01DX Z (ip), vehicle: saline): 105 % of control and 106 % of control
- T/C (endpoint: mean survival time, dose: 12.5 mg/kg/injection, schedule: Q01DX009 (ip), vehicle: saline): 95 % of control and 101 % of control
- T/C (endpoint: mean survival time, dose: 12.5 mg/kg/injection, schedule: Q01DX Z (ip), vehicle: saline): 96 % of control and 101 % of control
- T/C (endpoint: mean survival time, dose: 18.0 mg/kg/injection, schedule: Q01DX Z (ip), vehicle: saline): 108 % of control
- T/C (endpoint: mean survival time, dose: 24.5 mg/kg/injection, schedule: Q01DX Z (ip), vehicle: water): 111 % of control
- T/C (endpoint: mean survival time, dose: 25.0 mg/kg/injection, schedule: Q01DX009 (ip), vehicle: saline): 101 % of control and 103 % of control
- T/C (endpoint: mean survival time, dose: 25.0 mg/kg/injection, schedule: Q01DX Z (im), vehicle: saline): 109 % of control
- T/C (endpoint: mean survival time, dose: 26.0 mg/kg/injection, schedule: Q01DX Z (ip), vehicle: saline): 118 % of control
- T/C (endpoint: mean survival time, dose: 26.0 mg/kg/injection, schedule: Q01DX Z (sc), vehicle: saline): 110 % of control
- T/C (endpoint: mean survival time, dose: 30.0 mg/kg/injection, schedule: Q#A X Z (ip), vehicle: saline): 112 % of control
- T/C (endpoint: mean survival time, dose: 34.0 mg/kg/injection, schedule: Q03DX005 (ip), vehicle: saline): 103 % of control
- T/C (endpoint: mean survival time, dose: 36.0 mg/kg/injection, schedule: Q03DX003 (ip), vehicle: saline): 118 % of control
- T/C (endpoint: mean survival time, dose: 40.0 mg/kg/injection, schedule: Q01DX009 (iv), vehicle: saline): 120 % of control
- T/C (endpoint: mean survival time, dose: 40.0 mg/kg/injection, schedule: Q01DX Z (ip), vehicle: saline): 151 % of control
- T/C (endpoint: mean survival time, dose: 40.0 mg/kg/injection, schedule: Q01DX Z (sc), vehicle: saline): 106 % of control and 107 % of control and 112 % of control
- T/C (endpoint: mean survival time, dose: 50.0 mg/kg/injection, schedule: Q01DX009 (ip), vehicle: saline): 110 % of control and 111 % of control
- T/C (endpoint: mean survival time, dose: 50.0 mg/kg/injection, schedule: Q01DX Z (im), vehicle: saline): 100 % of control
- T/C (endpoint: mean survival time, dose: 52.0 mg/kg/injection, schedule: Q03DX005 (ip), vehicle: saline): 108 % of control
- T/C (endpoint: mean survival time, dose: 60.0 mg/kg/injection, schedule: Q01DX009 (iv), vehicle: saline): 111 % of control
- T/C (endpoint: mean survival time, dose: 60.0 mg/kg/injection, schedule: Q01DX Z (ip), vehicle: saline): 160 % of control
- T/C (endpoint: mean survival time, dose: 60.0 mg/kg/injection, schedule: Q01DX Z (iv), vehicle: saline): 115 % of control
- T/C (endpoint: mean survival time, dose: 78.0 mg/kg/injection, schedule: Q03DX005 (ip), vehicle: saline): 118 % of control
- T/C (endpoint: mean survival time, dose: 78.0 mg/kg/injection, schedule: Q03DX 5 (iv), vehicle: saline): 117 % of control
- T/C (endpoint: mean survival time, dose: 80.0 mg/kg/injection, schedule: Q03DX004 (ip), vehicle: saline): 151 % of control
- T/C (endpoint: mean survival time, dose: 80.0 mg/kg/injection, schedule: Q07DX001 (ip), vehicle: saline): 124 % of control
- T/C (endpoint: mean survival time, dose: 90.0 mg/kg/injection, schedule: Q01DX 1 (iv), vehicle: saline): 118 % of control
- T/C (endpoint: mean survival time, dose: 90.0 mg/kg/injection, schedule: Q01DX009 (iv), vehicle: saline): 115 % of control
- T/C (endpoint: mean survival time, dose: 90.0 mg/kg/injection, schedule: Q01DX Z (ip), vehicle: saline): 152 % of control and 166 % of control
- T/C (endpoint: mean survival time, dose: 90.0 mg/kg/injection, schedule: Q01DX Z (iv), vehicle: saline): 121 % of control
- T/C (endpoint: mean survival time, dose: 90.0 mg/kg/injection, schedule: Q03DX 5 (iv), vehicle: saline): 114 % of control
- T/C (endpoint: mean survival time, dose: 90.0 mg/kg/injection, schedule: Q07DX 2 (iv), vehicle: saline): 106 % of control
- T/C (endpoint: mean survival time, dose: 99.5 mg/kg/injection, schedule: Q01DX Z (ip), vehicle: water): 111 % of control
- T/C (endpoint: mean survival time, dose: 100.0 mg/kg/injection, schedule: Q01DX009 (ip), vehicle: saline): 101 % of control and 120 % of control
- T/C (endpoint: mean survival time, dose: 100.0 mg/kg/injection, schedule: Q01DX Z (im), vehicle: saline): 120 % of control and 124 % of control
- T/C (endpoint: mean survival time, dose: 100.0 mg/kg/injection, schedule: Q01DX Z (oral), vehicle: saline): 111 % of control
- T/C (endpoint: mean survival time, dose: 104.0 mg/kg/injection, schedule: Q01DX Z (oral), vehicle: saline): 101 % of control
- T/C (endpoint: mean survival time, dose: 120.0 mg/kg/injection, schedule: Q01DX001 (ip), vehicle: saline): 119 % of control
- T/C (endpoint: mean survival time, dose: 120.0 mg/kg/injection, schedule: Q01DX 1 (iv), vehicle: saline): 112 % of control
- T/C (endpoint: mean survival time, dose: 120.0 mg/kg/injection, schedule: Q07DX 2 (iv), vehicle: saline): 102 % of control
- T/C (endpoint: mean survival time, dose: 125.0 mg/kg/injection, schedule: Q01DX001 (ip), vehicle: saline): 114 % of control
- T/C (endpoint: mean survival time, dose: 135.0 mg/kg/injection, schedule: Q01DX Z (iv), vehicle: saline): 95 % of control
- T/C (endpoint: mean survival time, dose: 135.0 mg/kg/injection, schedule: Q01DX Z (sc), vehicle: saline): 108 % of control and 91 % of control and 92 % of control
- T/C (endpoint: mean survival time, dose: 160.0 mg/kg/injection, schedule: Q01DX Z (oral), vehicle: saline): 101 % of control
- T/C (endpoint: mean survival time, dose: 180.0 mg/kg/injection, schedule: Q01DX 1 (iv), vehicle: saline): 109 % of control
- T/C (endpoint: mean survival time, dose: 180.0 mg/kg/injection, schedule: Q03DX Z (ip), vehicle: saline): 151 % of control
- T/C (endpoint: mean survival time, dose: 180.0 mg/kg/injection, schedule: Q07DX 2 (iv), vehicle: saline): 111 % of control
- T/C (endpoint: mean survival time, dose: 182.0 mg/kg/injection, schedule: Q07DX Z (ip), vehicle: saline): 123 % of control
- T/C (endpoint: mean survival time, dose: 200.0 mg/kg/injection, schedule: Q01DX009 (ip), vehicle: saline): 90 % of control
- T/C (endpoint: mean survival time, dose: 200.0 mg/kg/injection, schedule: Q01DX Z (im), vehicle: saline): 91 % of control
- T/C (endpoint: mean survival time, dose: 200.0 mg/kg/injection, schedule: Q01DX Z (ip), vehicle: saline): 87 % of control
- T/C (endpoint: mean survival time, dose: 200.0 mg/kg/injection, schedule: Q01DX Z (oral), vehicle: saline): 105 % of control
- T/C (endpoint: mean survival time, dose: 240.0 mg/kg/injection, schedule: Q01DX Z (oral), vehicle: saline): 101 % of control
- T/C (endpoint: mean survival time, dose: 250.0 mg/kg/injection, schedule: Q01DX001 (ip), vehicle: saline): 115 % of control
- T/C (endpoint: mean survival time, dose: 270.0 mg/kg/injection, schedule: Q01DX 1 (iv), vehicle: saline): 98 % of control
- T/C (endpoint: mean survival time, dose: 270.0 mg/kg/injection, schedule: Q07DX 2 (iv), vehicle: saline): 106 % of control
- T/C (endpoint: mean survival time, dose: 400.0 mg/kg/injection, schedule: Q01DX Z (oral), vehicle: saline): 117 % of control
- T/C (endpoint: mean survival time, dose: 405.0 mg/kg/injection, schedule: Q01DX001 (ip), vehicle: saline): 108 % of control and 89 % of control
- T/C (endpoint: mean survival time, dose: 420.0 mg/kg/injection, schedule: Q07DX Z (ip), vehicle: saline): 93 % of control
- T/C (endpoint: mean survival time, dose: 500.0 mg/kg/injection, schedule: Q01DX001 (ip), vehicle: saline): 117 % of control
- T/C (endpoint: mean survival time, dose: 540.0 mg/kg/injection, schedule: Q01DX Z (oral), vehicle: saline): 95 % of control
- T/C (endpoint: mean survival time, dose: 800.0 mg/kg/injection, schedule: Q01DX Z (oral), vehicle: saline): 105 % of control
- T/C (endpoint: mean survival time, dose: 1000.0 mg/kg/injection, schedule: Q01DX001 (ip), vehicle: saline): 97 % of control
- T/C (endpoint: median survival time, dose: 25.0 mg/kg/injection, schedule: Q01DX017 (ip), vehicle: water): 122 % of control
- T/C (endpoint: median survival time, dose: 50.0 mg/kg/injection, schedule: Q01DX017 (ip), vehicle: water): 150 % of control

SMILES: COc1ccc(C(=O)N2CCN(C)CC2)cc1OC
- T/C (endpoint: mean survival time, dose: 100.0 mg/kg/injection, schedule: Q01DX001 (ip), vehicle: saline): 101 % of control
- T/C (endpoint: mean survival time, dose: 200.0 mg/kg/injection, schedule: Q01DX001 (ip), vehicle: saline): 101 % of control
- T/C (endpoint: mean survival time, dose: 400.0 mg/kg/injection, schedule: Q01DX001 (ip), vehicle: saline): 97 % of control

SMILES: O=C1C(O)=C(Cl)C(=O)C(O)=C1Cl
- T/C (endpoint: mean survival time, dose: 100.0 mg/kg/injection, schedule: Q01DX009 (ip), vehicle: saline with Tween-80): 106 % of control
- T/C (endpoint: mean survival time, dose: 100.0 mg/kg/injection, schedule: Q04DX003 (ip), vehicle: saline): 114 % of control
- T/C (endpoint: mean survival time, dose: 200.0 mg/kg/injection, schedule: Q01DX009 (ip), vehicle: saline with Tween-80): 95 % of control
- T/C (endpoint: mean survival time, dose: 200.0 mg/kg/injection, schedule: Q04DX003 (ip), vehicle: saline): 120 % of control
- T/C (endpoint: mean survival time, dose: 400.0 mg/kg/injection, schedule: Q04DX003 (ip), vehicle: saline): 116 % of control

SMILES: CSc1nc(C)c(Br)c(N2CC2)n1
- T/C (endpoint: mean survival time, dose: 50.0 mg/kg/injection, schedule: Q01DX Z (ip), vehicle: methylcellulose (MC)): 95 % of control

SMILES: CCC(CC)C(O)C(C)C(C)O (centres undefined)
- T/C (endpoint: mean survival time, dose: 100.0 mg/kg/injection, schedule: Q04DX003 (ip), vehicle: saline with Tween-80): 97 % of control
- T/C (endpoint: mean survival time, dose: 200.0 mg/kg/injection, schedule: Q04DX003 (ip), vehicle: saline with Tween-80): 113 % of control
- T/C (endpoint: mean survival time, dose: 400.0 mg/kg/injection, schedule: Q04DX003 (ip), vehicle: saline with Tween-80): 97 % of control
